Experimental data reported in patent US10807992B2, “Single enantiomer antiparasitic compounds” (priority 2017, dated 2020).
Where two headings read alike, the source gives them in different places.

Legend:
[1] = test system: Aedes aegypti; experiment: In vitro ingestion activity against adult mosquitoes (artificial feeding, bovine blood); conditions: read-out: Mortality % R1 + R2
Method: Aedes aegypti (Louisiana Biologicals Inc., New Orleans, La.) eggs were allowed to hatch, close, and age between 3-5 days in an environmental chamber at 26° C., 80% humidity with light/dark cycles.
For mosquito ingestion tests, serial dilutions of the compound stock were performed using DMSO to achieve the desired range for EC50 and EC90 determination. An aliquot of each compound dilution was added to organic bovine blood with a final DMSO concentration of 0.5% and placed in a temperature-controlled artificial feeding container.
Compounds tested were: the C1 racemate, C1 (R) enantiomer, and the C1 (S) enantiomer. For Trial 3, the C1 (R) enantiomer and the C1 (S) enantiomer were further chiral purified to achieve >99% purity.
(§1) For both contact and ingestion assays, five female Aedes aegypti adults were added to each vial or cage. The test vials for contact assays were held in an environmental chamber at 24° C., 80% humidity with light/dark cycles (12 hours each). The cages for mosquito ingestion assays were held in a temperature-controlled artificial feeding apparatus to allow continual access to organic bovine blood containing the desired concentration of compound. Fresh aliquots of compound-spiked bovine blood were provided daily for the duration of the study.
Assessment of mortality/knockdown was performed at various time points between 30 minutes and 24 hours post infestation. Mosquitoes showing no movement or mosquitoes that were knocked down were noted as dead. Results from trial 1 and trial 2 contact assays are shown in Tables 12 and 13, respectively and the results from trial 3 mosquito ingestion assay is shown in table 14.
For the mosquito contact and ingestion assays, each replicate contained 5 mosquitoes. For ease of calculation, the two replicates were added to equal a total of 10 mosquitoes.

[2] = test system: Ctenocephalides felis; experiment: In vitro contact activity against fleas (coated substrate); conditions: for mortality at 0.006 ppm: Trial 3, dose 0.006 ppm; for mortality at 0.024 ppm: Trial 3, dose 0.024 ppm; for mortality at 0.098 ppm: Trial 3, dose 0.098 ppm; for mortality at 0.39 ppm: Trial 3, dose 0.39 ppm; for mortality at 1.56 ppm: Trial 3, dose 1.56 ppm; for mortality at 6.25 ppm: Trial 3, dose 6.25 ppm; for mortality at 25 ppm: Trial 3, dose 25 ppm; for mortality at 100 ppm: Trial 3, dose 100 ppm
Method: Ctenocephalides felis (Avista Pharma, Inc., RTP, NC), 1-7days post hatch, held in an environmental chamber at 24° C., 85% humidity.
For flea contact tests, vial caps were pre-drilled with a single hole in the center of each cap to allow air exchange. A filter paper (Whatman Grade 540 2.1 cm) was placed in the lid of each vial. Pipe cleaners cut to 0.5 inches were inserted in each test vial. An aliquot was taken from each compound stock and added to an acetone/triton solution to achieve the desired top concentrations for the study. Serial dilutions were conducted from the top dose (i.e. 100 ppm) to achieve the desired concentration for EC50 and EC90 determination. The final DMSO concentration was 0.5%. A 75 μL aliquot of each compound formulation was added to each 0.5 inch pipe cleaner contained in the treatment vial. The vials were loosely capped and allowed to dry for a minimum of four hours in a chemical fume hood.
Compounds tested were C1 racemate, the C1 (R) enantiomer, and the C1 (S) enantiomer. For Trial 3, the C1 (R) enantiomer and the C1 (S) enantiomer were further chiral purified to achieve >99% purity.
as §1, with “ten newly emerged unfed adult fleas, 0-7 days old Ctenocephalides felis, from a laboratory colony,” for “five female Aedes aegypti adults”, “aspirated into” for “added to”, “flea” for “mosquito”
Fleas were evaluated for percent mortality at various time points between 2 hours and 48 hours post infestation. Fleas showing normal movement and/or jumping ability were considered viable and those showing no movement after tapping the vials were scored as dead.

SMILES: O=C(CC(F)(F)F)N1CC2(C1)OCc1cc(C3=NS[C@](c4cc(Cl)c(F)c(Cl)c4)(C(F)(F)F)C3)ccc12 [C1 (R) enantiomer, (R)-1-[6-[5-(3,5-dichloro-4-fluoro-phenyl)-5-(trifluoromethyl)-4H-isothiazol-3-yl]spiro[1H-isobenzofuran-3,3′-azetidine]-1′-yl]-3,3,3-trifluoro-propan-1-one]
- mortality at 0.049 ppm ([1]; 24 h): 40%
- mortality at 0.2 ppm ([1]; 24 h): 30%
- mortality at 0.78 ppm ([1]; 24 h): 75%
- mortality at 3.125 ppm ([1]; 24 h): 100%
- mortality at 12.5 ppm ([1]; 24 h): 100%
- mortality at 50 ppm ([1]; 24 h): 100%
- mortality at 0.049 ppm [1]: 10%
- mortality at 0.2 ppm [1]: 10%
- mortality at 0.78 ppm [1]: 0%
- mortality at 3.125 ppm [1]: 11.1%
- mortality at 12.5 ppm [1]: 100%
- mortality at 50 ppm [1]: 88.9%
- mortality at 0.006 ppm ([2]; 6 h, Rep1): 0%
- mortality at 0.006 ppm ([2]; 6 h, Rep2): 0%
- mortality at 0.024 ppm ([2]; 6 h, Rep1): 0%
- mortality at 0.024 ppm ([2]; 6 h, Rep2): 0%
- mortality at 0.098 ppm ([2]; 6 h, Rep1): 0%
- mortality at 0.098 ppm ([2]; 6 h, Rep2): 0%
- mortality at 0.39 ppm ([2]; 6 h, Rep1): 0%
- mortality at 0.39 ppm ([2]; 6 h, Rep2): 0%
- mortality at 1.56 ppm ([2]; 6 h, Rep1): 0%
- mortality at 1.56 ppm ([2]; 6 h, Rep2): 0%
- mortality at 6.25 ppm ([2]; 6 h, Rep1): 0%
- mortality at 6.25 ppm ([2]; 6 h, Rep2): 0%
- mortality at 25 ppm ([2]; 6 h, Rep1): 0%
- mortality at 25 ppm ([2]; 6 h, Rep2): 0%
- mortality at 100 ppm ([2]; 6 h, Rep1): 0%
- mortality at 100 ppm ([2]; 6 h, Rep2): 0%
- mortality at 0.006 ppm ([2]; 24 h, Rep1): 0%
- mortality at 0.006 ppm ([2]; 24 h, Rep2): 0%
- mortality at 0.024 ppm ([2]; 24 h, Rep1): 0%
- mortality at 0.024 ppm ([2]; 24 h, Rep2): 0%
- mortality at 0.098 ppm ([2]; 24 h, Rep1): 0%
- mortality at 0.098 ppm ([2]; 24 h, Rep2): 0%
- mortality at 0.39 ppm ([2]; 24 h, Rep1): 0%
- mortality at 0.39 ppm ([2]; 24 h, Rep2): 0%
- mortality at 1.56 ppm ([2]; 24 h, Rep1): 0%
- mortality at 1.56 ppm ([2]; 24 h, Rep2): 0%
- mortality at 6.25 ppm ([2]; 24 h, Rep1): 0%
- mortality at 6.25 ppm ([2]; 24 h, Rep2): 0%
- mortality at 25 ppm ([2]; 24 h, Rep1): 0%
- mortality at 25 ppm ([2]; 24 h, Rep2): 0%
- mortality at 100 ppm ([2]; 24 h, Rep1): 0%
- mortality at 100 ppm ([2]; 24 h, Rep2): 0%
- mortality at 0.006 ppm ([2]; 48 h, Rep1): 0%
- mortality at 0.006 ppm ([2]; 48 h, Rep2): 0%
- mortality at 0.024 ppm ([2]; 48 h, Rep1): 0%
- mortality at 0.024 ppm ([2]; 48 h, Rep2): 0%
- mortality at 0.098 ppm ([2]; 48 h, Rep1): 0%
- mortality at 0.098 ppm ([2]; 48 h, Rep2): 0%
- mortality at 0.39 ppm ([2]; 48 h, Rep1): 0%
- mortality at 0.39 ppm ([2]; 48 h, Rep2): 0%
- mortality at 1.56 ppm ([2]; 48 h, Rep1): 0%
- mortality at 1.56 ppm ([2]; 48 h, Rep2): 0%
- mortality at 6.25 ppm ([2]; 48 h, Rep1): 0%
- mortality at 6.25 ppm ([2]; 48 h, Rep2): 0%
- mortality at 25 ppm ([2]; 48 h, Rep1): 0%
- mortality at 25 ppm ([2]; 48 h, Rep2): 0%
- mortality at 100 ppm ([2]; 48 h, Rep1): 0%
- mortality at 100 ppm ([2]; 48 h, Rep2): 0%

SMILES: O=C(CC(F)(F)F)N1CC2(C1)OCc1cc(C3=NS[C@@](c4cc(Cl)c(F)c(Cl)c4)(C(F)(F)F)C3)ccc12 [C1 (S) enantiomer, (S)-1-[6-[5-(3,5-dichloro-4-fluoro-phenyl)-5-(trifluoromethyl)-4H-isothiazol-3-yl]spiro[1H-isobenzofuran-3,3′-azetidine]-1′-yl]-3,3,3-trifluoro-propan-1-one]
- mortality at 0.049 ppm ([1]; 24 h): 70%
- mortality at 0.2 ppm ([1]; 24 h): 100%
- mortality at 0.78 ppm ([1]; 24 h): 100%
- mortality at 3.125 ppm ([1]; 24 h): 100%
- mortality at 12.5 ppm ([1]; 24 h): 100%
- mortality at 50 ppm ([1]; 24 h): 100%
- mortality at 0.049 ppm [1]: 0%
- mortality at 0.2 ppm [1]: 44.4%
- mortality at 0.78 ppm [1]: 100%
- mortality at 3.125 ppm [1]: 100%
- mortality at 12.5 ppm [1]: 100%
- mortality at 50 ppm [1]: 100%
- mortality at 0.006 ppm ([2]; 6 h, Rep1): 0%
- mortality at 0.006 ppm ([2]; 6 h, Rep2): 0%
- mortality at 0.024 ppm ([2]; 6 h, Rep1): 0%
- mortality at 0.024 ppm ([2]; 6 h, Rep2): 0%
- mortality at 0.098 ppm ([2]; 6 h, Rep1): 0%
- mortality at 0.098 ppm ([2]; 6 h, Rep2): 0%
- mortality at 0.39 ppm ([2]; 6 h, Rep1): 0%
- mortality at 0.39 ppm ([2]; 6 h, Rep2): 0%
- mortality at 1.56 ppm ([2]; 6 h, Rep1): 0%
- mortality at 1.56 ppm ([2]; 6 h, Rep2): 0%
- mortality at 6.25 ppm ([2]; 6 h, Rep1): 0%
- mortality at 6.25 ppm ([2]; 6 h, Rep2): 0%
- mortality at 25 ppm ([2]; 6 h, Rep1): 0%
- mortality at 25 ppm ([2]; 6 h, Rep2): 0%
- mortality at 100 ppm ([2]; 6 h, Rep1): 0%
- mortality at 100 ppm ([2]; 6 h, Rep2): 0%
- mortality at 0.006 ppm ([2]; 24 h, Rep1): 0%
- mortality at 0.006 ppm ([2]; 24 h, Rep2): 0%
- mortality at 0.024 ppm ([2]; 24 h, Rep1): 0%
- mortality at 0.024 ppm ([2]; 24 h, Rep2): 0%
- mortality at 0.098 ppm ([2]; 24 h, Rep1): 0%
- mortality at 0.098 ppm ([2]; 24 h, Rep2): 0%
- mortality at 0.39 ppm ([2]; 24 h, Rep1): 0%
- mortality at 0.39 ppm ([2]; 24 h, Rep2): 0%
- mortality at 1.56 ppm ([2]; 24 h, Rep1): 0%
- mortality at 1.56 ppm ([2]; 24 h, Rep2): 0%
- mortality at 6.25 ppm ([2]; 24 h, Rep1): 10%
- mortality at 6.25 ppm ([2]; 24 h, Rep2): 10%
- mortality at 25 ppm ([2]; 24 h, Rep1): 30%
- mortality at 25 ppm ([2]; 24 h, Rep2): 20%
- mortality at 100 ppm ([2]; 24 h, Rep1): 100%
- mortality at 100 ppm ([2]; 24 h, Rep2): 100%
- mortality at 0.006 ppm ([2]; 48 h, Rep1): 0%
- mortality at 0.006 ppm ([2]; 48 h, Rep2): 0%
- mortality at 0.024 ppm ([2]; 48 h, Rep1): 0%
- mortality at 0.024 ppm ([2]; 48 h, Rep2): 0%
- mortality at 0.098 ppm ([2]; 48 h, Rep1): 10%
- mortality at 0.098 ppm ([2]; 48 h, Rep2): 10%
- mortality at 0.39 ppm ([2]; 48 h, Rep1): 10%
- mortality at 0.39 ppm ([2]; 48 h, Rep2): 0%
- mortality at 1.56 ppm ([2]; 48 h, Rep1): 10%
- mortality at 1.56 ppm ([2]; 48 h, Rep2): 30%
- mortality at 6.25 ppm ([2]; 48 h, Rep1): 70%
- mortality at 6.25 ppm ([2]; 48 h, Rep2): 30%
- mortality at 25 ppm ([2]; 48 h, Rep1): 100%
- mortality at 25 ppm ([2]; 48 h, Rep2): 100%
- mortality at 100 ppm ([2]; 48 h, Rep1): 100%
- mortality at 100 ppm ([2]; 48 h, Rep2): 100%
